Measured values as given in ChEMBL document CHEMBL1201862, “PubChem BioAssay data set” (2004).
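A five-concentration, 48-hour dose response in 96-well plates underlies each endpoint, interpolated linearly between surrounding concentrations. Abbreviation: GI50, concentration required for 50% inhibition of growth.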 Activity calls are given as the source filed them. Cut-off read from the data, not from the text of the source: active = GI50 up to about 1.1 µM and inactive = higher.

Legend:
Assay in all cases: NCI anticancer screen, dose series, 48 h
SK-OV-3 = tested on: SK-OV-3
IGROV-1 = tested on: IGROV-1
SF-268 = tested on: SF-268
SK-MEL-5 = tested on: SK-MEL-5
NCI-H23 = tested on: NCI-H23
EKVX = tested on: EKVX
K562 = tested on: K562
OVCAR-3 = tested on: OVCAR-3
NCI-H226 = tested on: NCI-H226
SN12C = tested on: SN12C
LXFL 529 = tested on: LXFL 529
KM12 = tested on: KM12
OVCAR-5 = tested on: OVCAR-5
Malme-3M = tested on: Malme-3M
U-251 = tested on: U-251
SF-539 = tested on: SF-539
HCT-116 = tested on: HCT-116
SR = tested on: SR
NCI-H522 = tested on: NCI-H522
SK-MEL-2 = tested on: SK-MEL-2
TK-10 = tested on: TK-10
OVCAR-4 = tested on: OVCAR-4
UO-31 = tested on: UO-31
M19-MEL = tested on: M19-MEL
786-0 = tested on: 786-0
M14 = tested on: M14
RPMI-8226 = tested on: RPMI-8226
CCRF-CEM = tested on: CCRF-CEM
MOLT-4 = tested on: MOLT-4
SK-MEL-28 = tested on: SK-MEL-28
NCI-H460 = tested on: NCI-H460
SF-295 = tested on: SF-295
HCC 2998 = tested on: HCC 2998
HL-60 = tested on: HL-60
HT-29 = tested on: HT-29
RXF 393 = tested on: RXF 393
DMS-273 = tested on: DMS-273
CAKI-1 = tested on: CAKI-1
UACC-62 = tested on: UACC-62
COLO 205 = tested on: COLO 205
DLD-1 = tested on: DLD-1
DMS-114 = tested on: DMS-114
HOP-18 = tested on: HOP-18
A549 = tested on: A549
SNB-75 = tested on: SNB-75
HOP-92 = tested on: HOP-92
HOP-62 = tested on: HOP-62
KM-20L2 = tested on: KM-20L2
LOX IMVI = tested on: LOX IMVI
ACHN = tested on: ACHN
OVCAR-8 = tested on: OVCAR-8
A498 = tested on: A498
SNB-19 = tested on: SNB-19
UACC-257 = tested on: UACC-257
SNB-78 = tested on: SNB-78
XF498 = tested on: XF498
SW-620 = tested on: SW-620
DU-145 = tested on: DU-145
BT-549 = tested on: BT-549
MCF7 = tested on: MCF7
PC-3 = tested on: PC-3
MDA-MB-435 = tested on: MDA-MB-435
NCI/ADR-RES = tested on: NCI/ADR-RES
MDA-MB-231 = tested on: MDA-MB-231
HCT-15 = tested on: HCT-15

COC(=O)N1[C@H]2Cc3c(OC)c(C)c(OC)c(OC)c3[C@@H]1/C(=C\c1cc(OC)c(OC)c(C)c1OC)N(Cc1ccccc1)C2=O
GI50 (SK-OV-3): 57.3 µM (inactive) | GI50 (IGROV-1): 95.3 µM (inactive) | GI50 (SF-268): 78.2 µM (inactive) | GI50 (SK-MEL-5): 21.8 µM (inactive) | GI50 (NCI-H23): 75 µM (inactive) | GI50 (EKVX): 37.7 µM (inactive) | GI50 (K562): 26.2 µM (inactive) | GI50 (OVCAR-3): 32.7 µM (inactive) | GI50 (NCI-H226): 0.23 µM (active) | GI50 (SN12C): 40.6 µM (inactive) | GI50 (LXFL 529): 22 µM (inactive) | GI50 (KM12): 27.4 µM (inactive) | GI50 (OVCAR-5): > 100 µM (inactive) | GI50 (Malme-3M): 28.6 µM (inactive) | GI50 (U-251): 27.9 µM (inactive) | GI50 (SF-539): > 100 µM (inactive) | GI50 (HCT-116): 35.6 µM (inactive) | GI50 (SR): 7.85 µM (inactive) | GI50 (NCI-H522): 5.7 µM (inactive) | GI50 (SK-MEL-2): 24.7 µM (inactive) | GI50 (TK-10): 33.3 µM (inactive) | GI50 (OVCAR-4): 6.7 µM (inactive) | GI50 (UO-31): 18.7 µM (inactive) | GI50 (M19-MEL): 19.9 µM (inactive) | GI50 (786-0): 54 µM (inactive) | GI50 (M14): 29.7 µM (inactive) | GI50 (RPMI-8226): 20.9 µM (inactive) | GI50 (CCRF-CEM): 28.6 µM (inactive) | GI50 (MOLT-4): 16.1 µM (inactive) | GI50 (SK-MEL-28): > 100 µM (inactive) | GI50 (NCI-H460): 13.2 µM (inactive) | GI50 (SF-295): 39 µM (inactive) | GI50 (HCC 2998): 8.51 µM (inactive) | GI50 (HL-60): 5.52 µM (inactive) | GI50 (HT-29): 45.1 µM (inactive) | GI50 (RXF 393): > 100 µM (inactive) | GI50 (DMS-273): 13.2 µM (inactive) | GI50 (CAKI-1): 34.6 µM (inactive) | GI50 (UACC-62): 56.9 µM (inactive) | GI50 (COLO 205): 13.8 µM (inactive) | GI50 (DLD-1): 76.9 µM (inactive) | GI50 (DMS-114): 14.7 µM (inactive) | GI50 (HOP-18): 41.8 µM (inactive) | GI50 (A549): 40.8 µM (inactive) | GI50 (SNB-75): 67.5 µM (inactive) | GI50 (HOP-92): 7.96 µM (inactive) | GI50 (HOP-62): 74.1 µM (inactive) | GI50 (KM-20L2): 46.2 µM (inactive) | GI50 (LOX IMVI): 30.5 µM (inactive) | GI50 (ACHN): 32.4 µM (inactive) | GI50 (OVCAR-8): 32.4 µM (inactive) | GI50 (A498): > 100 µM (inactive) | GI50 (SNB-19): 58.9 µM (inactive) | GI50 (UACC-257): 23 µM (inactive)

N#CC(c1ccc(Cl)cc1)c1cccc(C(C#N)c2ccc(Cl)cc2)n1 (configuration not stated)
GI50 (SK-OV-3): 47.4 µM (inactive) | GI50 (SF-268): 27 µM (inactive) | GI50 (NCI-H23): 3.95 µM (inactive) | GI50 (EKVX): 25 µM (inactive) | GI50 (K562): 6.35 µM (inactive) | GI50 (OVCAR-3): 15.9 µM (inactive) | GI50 (NCI-H226): 37.4 µM (inactive) | GI50 (SN12C): 59.3 µM (inactive) | GI50 (LXFL 529): 7.78 µM (inactive) | GI50 (KM12): 17.6 µM (inactive) | GI50 (OVCAR-5): > 100 µM (inactive) | GI50 (SNB-78): 20.7 µM (inactive) | GI50 (Malme-3M): 30.6 µM (inactive) | GI50 (U-251): 18.1 µM (inactive) | GI50 (SR): 9.31 µM (inactive) | GI50 (NCI-H522): 17.6 µM (inactive) | GI50 (SK-MEL-2): 13.7 µM (inactive) | GI50 (TK-10): 7.29 µM (inactive) | GI50 (OVCAR-4): 32.6 µM (inactive) | GI50 (UO-31): 4.65 µM (inactive) | GI50 (M19-MEL): 19.6 µM (inactive) | GI50 (786-0): 50.4 µM (inactive) | GI50 (XF498): 5.13 µM (inactive) | GI50 (M14): 34.8 µM (inactive) | GI50 (RPMI-8226): 82 µM (inactive) | GI50 (CCRF-CEM): 25.9 µM (inactive) | GI50 (MOLT-4): 8.02 µM (inactive) | GI50 (SK-MEL-28): 17 µM (inactive) | GI50 (NCI-H460): 23.1 µM (inactive) | GI50 (SF-295): 8.43 µM (inactive) | GI50 (HCC 2998): 37.4 µM (inactive) | GI50 (HL-60): 12.1 µM (inactive) | GI50 (HT-29): 19.1 µM (inactive) | GI50 (CAKI-1): 16.9 µM (inactive) | GI50 (UACC-62): 14 µM (inactive) | GI50 (COLO 205): 14.4 µM (inactive) | GI50 (DLD-1): 37.2 µM (inactive) | GI50 (A549): 10.6 µM (inactive) | GI50 (SNB-75): 15.9 µM (inactive) | GI50 (HOP-92): 15.2 µM (inactive) | GI50 (HOP-62): 93.8 µM (inactive) | GI50 (KM-20L2): 38.8 µM (inactive) | GI50 (ACHN): 10.8 µM (inactive) | GI50 (OVCAR-8): 55.1 µM (inactive) | GI50 (A498): 2.31 µM (inactive) | GI50 (SNB-19): 26.5 µM (inactive) | GI50 (SW-620): 46 µM (inactive) | GI50 (UACC-257): 14.1 µM (inactive)

CCOC(=O)c1ccc(N[C@@H]2c3cc4c(cc3C(c3cc(OC)c(O)c(OC)c3)[C@H]3C(=O)OCC32)OCO4)cc1 (some centres not stated)
GI50 (SK-OV-3): 0.955 µM (active) | GI50 (IGROV-1): 3.27 µM (inactive) | GI50 (SF-268): 0.771 µM (active) | GI50 (SK-MEL-5): 0.505 µM (active) | GI50 (DU-145): 0.258 µM (active) | GI50 (NCI-H23): 0.339 µM (active) | GI50 (EKVX): 1.77 µM (inactive) | GI50 (BT-549): 1.64 µM (inactive) | GI50 (OVCAR-3): 2.85 µM (inactive) | GI50 (NCI-H226): 0.284 µM (active) | GI50 (SN12C): 0.396 µM (active) | GI50 (LXFL 529): 4.55 µM (inactive) | GI50 (MCF7): 0.105 µM (active) | GI50 (KM12): 1.5 µM (inactive) | GI50 (OVCAR-5): 1.56 µM (inactive) | GI50 (SNB-78): 4.1 µM (inactive) | GI50 (Malme-3M): 0.568 µM (active) | GI50 (U-251): 0.249 µM (active) | GI50 (PC-3): 1.61 µM (inactive) | GI50 (SF-539): 0.421 µM (active) | GI50 (HCT-116): 1.17 µM (inactive) | GI50 (SR): 0.0474 µM (active) | GI50 (SK-MEL-2): 2.63 µM (inactive) | GI50 (OVCAR-4): 4.21 µM (inactive) | GI50 (UO-31): 0.769 µM (active) | GI50 (M19-MEL): 1.75 µM (inactive) | GI50 (XF498): 0.726 µM (active) | GI50 (M14): 0.679 µM (active) | GI50 (MDA-MB-435): 3.07 µM (inactive) | GI50 (RPMI-8226): 0.145 µM (active) | GI50 (CCRF-CEM): 0.0818 µM (active) | GI50 (MOLT-4): 0.0142 µM (active) | GI50 (SK-MEL-28): 2.55 µM (inactive) | GI50 (NCI-H460): 0.0255 µM (active) | GI50 (HCC 2998): 1.22 µM (inactive) | GI50 (HL-60): 0.0912 µM (active) | GI50 (HT-29): 1.94 µM (inactive) | GI50 (CAKI-1): 0.251 µM (active) | GI50 (UACC-62): 0.521 µM (active) | GI50 (COLO 205): 3.15 µM (inactive) | GI50 (DLD-1): 1.44 µM (inactive) | GI50 (DMS-114): 0.56 µM (active) | GI50 (A549): 0.0413 µM (active) | GI50 (SNB-75): 1.21 µM (inactive) | GI50 (NCI/ADR-RES): 1.42 µM (inactive) | GI50 (HOP-92): 1.1 µM (active) | GI50 (KM-20L2): 0.713 µM (active) | GI50 (ACHN): 0.131 µM (active) | GI50 (OVCAR-8): 0.708 µM (active) | GI50 (A498): 0.244 µM (active) | GI50 (MDA-MB-231): 1.67 µM (inactive) | GI50 (SNB-19): 0.36 µM (active) | GI50 (SW-620): 0.475 µM (active) | GI50 (HCT-15): 0.379 µM | GI50 (UACC-257): 3.57 µM (inactive)
